One experiment concerns the target BRD4-BD1 (Homo sapiens (Human), UniProt O60885). The experiment can be described thus: AlphaLisa bromodomain binding assay, BRD4-BD1. Conditions: Table 6; read-out: BRD4(1) IC50.
The target in the next experiment is JAK2 (Homo sapiens (Human), UniProt O60674). The experiment in a line: HTRF kinase assay, JAK2. The format is biochemical. Conditions: Table 6. The text has this:
A kinase assay with HTRF was used to observe JAK activity and calculate the IC50s of compounds disclosed herein. HTRF is an enzymatic assay used to determine the amount of phosphorylated peptide. FRET (Fluorescence Resonance Energy Transfer) is based on the transfer of energy between two fluorophores—a donor and an acceptor—when in close proximity. Molecular interactions between biomolecules can be assessed by coupling each partner with a fluorescent label and by detecting the level of energy transfer. The amount of phopshorylated peptide can be detected using a combination of a Eu 3+Cryptate labeled anti-phospho residue antibody, SA-XL665 and a biotinylated substrate. The signal is proportional to the concentration of phospho-residues.
Equipment Required • 1. […] Plate centrifuge • 3. Plate shaker • 4. […] Single channel and multi-channel pipettes • 6. Microplate reader (Pherastar)]
Stock and Final Assay Concentrations (FAC) • 1. All reference and test compounds are made at a concentration of 10 mM in DMSO. Compounds are serially diluted in DMSO and a FAC starting from 10 μM to 10 point 3 fold serial dilutions is arrived. For Ruxolitinib the starting FAC is 1 μM. FAC of DMSO is 1%. • 2. Enzyme stock and FAC
• JAK-1: Invtirogen Cat: PR8767C • JAK-2: Invtirogen Cat: PR7820B • JAK-3: Invtirogen Cat: PR7507B • 3. Substrate (synthetic peptide-Biotinylated-N-terminal tag-[…] from Biopeptide) stock and FAC
• Adenosine 5′-triphosphate disodium salt hydrate: Sigma Cat: A26209 • 5. […] Buffers • Base buffer (for 50 ml)
• HTRF buffer: • 50 mM Tris-HCl, pH—7.5 • 100 mM NaCl • 0.1% BSA • 0.05% Tween20 • 0.5 mM EDTA
To a 384 well black-plate: • 1. Add 17 μL of the buffer to each well of the 384-well black plate • 2. […] Add 5 μl of the enzyme to each well of the plate • 4. Add 10 μl of the substrate and ATP mix to all the wells • 5. Cover with plate sealer • 6. […] Incubate at room temperature for 1 hour on shaker • 8. […] Add 37.5 μL of the HTRF mix to these wells. • 9. Incubate the plate at room temperature on shaker for 45 minutes. • 10.
The percent inhibition is calculated in the excel analysis template and the IC50 values are subsequently determined using a sigmoidal dose-response curve (variable slope) using GraphPad Prism® 5 software.

Molecules are shown by their SMILES.

Chain of JAK2 (O60674 whole entry): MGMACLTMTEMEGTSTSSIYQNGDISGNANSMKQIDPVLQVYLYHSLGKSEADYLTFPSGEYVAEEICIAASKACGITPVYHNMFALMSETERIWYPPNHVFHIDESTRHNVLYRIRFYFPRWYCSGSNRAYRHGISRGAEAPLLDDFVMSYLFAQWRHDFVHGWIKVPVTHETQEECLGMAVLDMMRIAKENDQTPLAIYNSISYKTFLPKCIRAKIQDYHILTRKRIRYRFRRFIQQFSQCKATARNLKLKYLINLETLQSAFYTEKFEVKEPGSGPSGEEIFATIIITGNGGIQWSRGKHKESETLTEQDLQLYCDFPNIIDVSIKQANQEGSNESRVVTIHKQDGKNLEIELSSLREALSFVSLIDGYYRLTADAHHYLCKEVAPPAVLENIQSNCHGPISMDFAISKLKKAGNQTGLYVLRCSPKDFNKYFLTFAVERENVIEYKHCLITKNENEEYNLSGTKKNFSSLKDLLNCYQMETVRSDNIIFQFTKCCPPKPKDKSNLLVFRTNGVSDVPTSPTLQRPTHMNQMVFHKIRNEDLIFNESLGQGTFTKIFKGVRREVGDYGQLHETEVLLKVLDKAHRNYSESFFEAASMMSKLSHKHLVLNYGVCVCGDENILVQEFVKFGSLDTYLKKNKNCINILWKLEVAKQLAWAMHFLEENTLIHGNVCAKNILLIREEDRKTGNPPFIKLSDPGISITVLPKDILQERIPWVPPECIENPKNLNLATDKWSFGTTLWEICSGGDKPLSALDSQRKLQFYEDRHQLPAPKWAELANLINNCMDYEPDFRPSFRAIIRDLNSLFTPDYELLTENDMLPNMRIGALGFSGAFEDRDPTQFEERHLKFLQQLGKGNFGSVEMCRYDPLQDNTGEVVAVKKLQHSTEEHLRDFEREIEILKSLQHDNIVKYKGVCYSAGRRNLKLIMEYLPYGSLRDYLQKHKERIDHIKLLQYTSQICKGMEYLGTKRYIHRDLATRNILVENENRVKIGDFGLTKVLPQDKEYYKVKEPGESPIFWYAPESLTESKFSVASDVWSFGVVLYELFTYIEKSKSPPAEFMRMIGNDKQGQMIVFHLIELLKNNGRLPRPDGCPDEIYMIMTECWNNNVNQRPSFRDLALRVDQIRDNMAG

On to `CN(C)C1CCN(C(=O)c2ccc(Nc3ncc4ccn(-c5ccc(F)c(NS(=O)(=O)C(C)(C)C)c5)c4n3)cc2F)CC1`, for which the IC50 on BRD4-BD1 is 0.123 µM; on JAK2, 0.17 µM.

Regarding `CN1CCN(c2ccc(Nc3ncc4ccn(-c5cccc(NC(=O)C(C)(C)C)c5)c4n3)cc2)CC1`, the IC50 turned out to be 10 µM on BRD4-BD1 and 0.054 µM on JAK2.

As for `CN1CCN(c2ccc(Nc3ncc4ccn(-c5ccc(F)c(NS(=O)(=O)C(C)(C)C)c5)c4n3)cc2F)CC1`, the results for the IC50 on BRD4-BD1 and at JAK2 were 0.149 µM and 0.062 µM, respectively.

For `CC(C)(C)S(=O)(=O)Nc1cccc(-n2ccc3cnc(Nc4ccc(NCCN)cc4)nc32)c1`, the IC50 at BRD4-BD1 was determined as 0.682 µM; on JAK2, 0.02 µM.

With `CNCCNc1ccc(Nc2ncc3ccn(-c4cccc(NS(=O)(=O)C(C)(C)C)c4)c3n2)cc1`, the IC50 worked out at 0.407 µM at BRD4-BD1 and 0.024 µM on JAK2.

On to `CN1CCN(C(=O)Cc2ccc(Nc3ncc4ccn(-c5ccc(F)c(NS(=O)(=O)C(C)(C)C)c5)c4n3)cc2)CC1`, for which the IC50 came to 0.643 µM on BRD4-BD1 and 0.239 µM at JAK2.

With `CN1CCN(c2ccc(Nc3ncc4ccn(-c5ccccc5NS(=O)(=O)C(C)(C)C)c4n3)cc2)CC1`, the IC50 on BRD4-BD1 is 10 µM; on JAK2 it was 2.4 µM.

`CNCCNC(=O)Cc1ccc(Nc2ncc3ccn(-c4ccc(F)c(NS(=O)(=O)C(C)(C)C)c4)c3n2)cc1`: the IC50 on BRD4-BD1 amounted to 0.193 µM; at JAK2 it was 0.359 µM.

With `CN(C)C1CCN(Cc2ccc(Nc3ncc4ccn(-c5cccc(NS(=O)(=O)C(C)(C)C)c5)c4n3)cc2F)CC1`, the IC50 on BRD4-BD1 is 0.145 µM; at JAK2 it was 0.051 µM.

As for `CC(C)(C)S(=O)(=O)Nc1cccc(-n2ccc3cnc(Nc4ccc(N5CCN(S(C)(=O)=O)CC5)cc4)nc32)c1`, the figures for the IC50 at BRD4-BD1 and at JAK2 were 4.6 µM and 0.04 µM, respectively.

Turning to `CC(C)S(=O)(=O)N1CCN(c2ccc(Nc3ncc4ccn(-c5cccc(NS(=O)(=O)C(C)(C)C)c5)c4n3)cc2)CC1`, the IC50 at BRD4-BD1 is 8.3 µM; at JAK2, 0.12 µM.

Consider `CN(C)C1CCN(Cc2ccc(Nc3ncc4ccn(-c5ccc(F)c(NS(=O)(=O)C(C)(C)C)c5)c4n3)cc2F)CC1`, for which the IC50 at BRD4-BD1 stood at 0.105 µM; on JAK2 it was 0.265 µM.

As for `CC(C)(C)S(=O)(=O)Nc1cc(-n2ccc3cnc(Nc4ccc(N5CCN(S(C)(=O)=O)CC5)c(F)c4)nc32)ccc1F`, the IC50 at BRD4-BD1 is 1.4 µM; on JAK2, 0.4 µM.

Take `CNC(=O)C1CCN(c2ccc(Nc3ncc4ccn(-c5ccc(F)c(NS(=O)(=O)C(C)(C)C)c5)c4n3)cc2F)CC1`: the IC50 on BRD4-BD1 worked out at 0.735 µM; on JAK2 it was 0.123 µM.

`CC(C)(C)S(=O)(=O)Nc1cc(-n2ccc3cnc(Nc4ccc(N5CCC(C(=O)O)CC5)c(F)c4)nc32)ccc1F`: the IC50 on BRD4-BD1 was determined as 1.1 µM; on JAK2, 0.12 µM.

On to `CN1CCN(c2ccc(Nc3ncc4ccn(-c5cccc(NS(=O)(=O)C(C)(C)C)c5)c4n3)cc2C(N)=O)CC1`, for which the IC50 at BRD4-BD1 stood at 0.577 µM; at JAK2, 0.072 µM.

Regarding `CN1CCN(c2ccc(Nc3ncc4ccn(-c5cccc(CNS(=O)(=O)C(C)(C)C)c5)c4n3)cc2)CC1`, the values for the IC50 on BRD4-BD1 and on JAK2 were 8.3 µM and 0.003 µM, respectively.

In the case of `CN1CCN(c2ccc(Nc3ncc4ccn(-c5cccc(NS(=O)(=O)C6(C)CC6)c5)c4n3)cc2)CC1`, the IC50 was determined as 0.93 µM on BRD4-BD1 and 0.012 µM at JAK2.

In the case of `CN1CCN(c2ccc(Nc3ccc4ccn(-c5cccc(NS(=O)(=O)C(C)(C)C)c5)c4n3)cc2)CC1`, the IC50 on BRD4-BD1 and at JAK2 was 10 µM each time.

Take `CNCCNC(=O)Cc1ccc(Nc2ncc3ccn(-c4ccc(F)c(NS(=O)(=O)C(C)(C)C)c4)c3n2)cc1F`: the IC50 on BRD4-BD1 came to 0.142 µM; at JAK2, 0.251 µM.

Regarding `CC(C)(C)S(=O)(=O)Nc1cc(-n2ccc3cnc(Nc4ccc(N5CCNC(=O)C5)c(F)c4)nc32)ccc1F`, the IC50 at BRD4-BD1 was found to be 0.295 µM; at JAK2, 0.142 µM.

As for `CN1CCN(c2ccc(Nc3ncc4cccc(-c5cccc(NS(=O)(=O)C(C)(C)C)c5)c4n3)cc2)CC1`, the IC50 on BRD4-BD1 was determined as 3.8 µM; on JAK2, 0.01 µM.

In the case of `CN(C)C1CCN(c2ccc(Nc3ncc4ccn(-c5cccc(NS(=O)(=O)C6(C)CC6)c5)c4n3)cc2)CC1`, the results for the IC50 at BRD4-BD1 and on JAK2 were 0.636 µM and 0.006 µM, respectively.

Take `CN(C)C(=O)C1CCN(c2ccc(Nc3ncc4ccn(-c5ccc(F)c(NS(=O)(=O)C(C)(C)C)c5)c4n3)cc2F)CC1`: the IC50 was determined as 0.491 µM on BRD4-BD1 and 0.129 µM on JAK2.

Consider `CCC1(S(=O)(=O)Nc2cccc(-n3ccc4cnc(Nc5ccc(N6CCC(N(C)C)CC6)cc5)nc43)c2)CC1`, for which the IC50 on BRD4-BD1 was found to be 1.4 µM; at JAK2 it was 0.0047 µM.

With `CCC1(S(=O)(=O)Nc2cccc(-n3ccc4cnc(Nc5ccc(N6CCC(N(C)C)CC6)c(F)c5)nc43)c2)CC1`, the IC50 at BRD4-BD1 was determined as 1.5 µM; at JAK2 it was 0.005 µM.

For `CN(C)C1CCN(c2ccc(Nc3ncc4scc(-c5cccc(NS(=O)(=O)C(C)(C)C)c5)c4n3)cc2)CC1`, the values for the IC50 on BRD4-BD1 and on JAK2 were 0.368 µM and 0.003 µM, respectively.

As to `CN(C)CC1CCN(c2ccc(Nc3ncc4ccn(-c5ccc(F)c(NS(=O)(=O)C(C)(C)C)c5)c4n3)cc2F)CC1`, the IC50 on BRD4-BD1 came out at 0.143 µM; at JAK2, 0.083 µM.

On to `CN1CCN2c3ccc(Nc4ncc5ccn(-c6cccc(NS(=O)(=O)C(C)(C)C)c6)c5n4)cc3CC2C1` (stereo not shown), for which the concentration for half-maximal inhibition (IC50) at BRD4-BD1 amounted to 0.366 µM; at JAK2, 0.014 µM.

On to `CCC1(S(=O)(=O)Nc2cc(-n3ccc4cnc(Nc5ccc(N6CCC(N(C)C)CC6)c(F)c5)nc43)ccc2F)CC1`, for which the results for the IC50 at BRD4-BD1 and at JAK2 were 0.963 µM and 0.024 µM, respectively.

`CN1CCN2c3ccc(Nc4ncc5ccn(-c6ccc(F)c(NS(=O)(=O)C(C)(C)C)c6)c5n4)cc3CC2C1` (stereo not shown): the figures for the IC50 on BRD4-BD1 and at JAK2 were 0.321 µM and 0.137 µM, respectively.

Regarding `CN(C)C1CCN(c2ccc(Nc3ncc4scc(-c5cccc(NS(=O)(=O)C(C)(C)C)c5)c4n3)cc2F)CC1`, the figures for the concentration for half-maximal inhibition (IC50) at BRD4-BD1 and on JAK2 were 0.297 µM and 0.004 µM, respectively.

Turning to `CN1CCN(c2ccc(Nc3ncc4scc(-c5cccc(NS(=O)(=O)C(C)(C)C)c5)c4n3)cc2F)CC1`, the IC50 on BRD4-BD1 was found to be 0.393 µM; on JAK2 it was 0.018 µM.

With `CCC1(S(=O)(=O)Nc2cc(-n3ccc4cnc(Nc5ccc(N6CCN(C)CC6)c(F)c5)nc43)ccc2F)CC1`, the IC50 on BRD4-BD1 was 1.5 µM; on JAK2, 0.103 µM.

Consider `CN1CCN2c3ccc(Nc4ncc5scc(-c6cccc(NS(=O)(=O)C(C)(C)C)c6)c5n4)cc3CC2C1` (stereo not shown), for which the IC50 on BRD4-BD1 came to 0.607 µM; at JAK2 it was 0.002 µM.

On to `CN1CCCc2cc(Nc3ncc4ccn(-c5cccc(NS(=O)(=O)C(C)(C)C)c5)c4n3)ccc21`, for which the results for the IC50 at BRD4-BD1 and on JAK2 were 0.8 µM and 0.07 µM, respectively.

For the compound `CN(C)C1CCN(c2ccc(Nc3ncc4ccn(-c5ccc(F)c(NS(=O)(=O)C6(C)CC6)c5)c4n3)cc2F)CC1`, the IC50 on BRD4-BD1 came to 0.248 µM; at JAK2, 0.02 µM.

Turning to `CN1CCN(c2ccc(Nc3ncc4scc(-c5ccc(F)c(NS(=O)(=O)C(C)(C)C)c5)c4n3)cc2F)CC1`, the IC50 was 0.228 µM on BRD4-BD1 and 0.036 µM at JAK2.

As to `CN1C(=O)CCc2cc(Nc3ncc4ccn(-c5cccc(NS(=O)(=O)C(C)(C)C)c5)c4n3)ccc21`, the results for the IC50 at BRD4-BD1 and on JAK2 were 3.2 µM and 0.035 µM, respectively.

On to `CC(C)(C)S(=O)(=O)Nc1cccc(-c2csc3cnc(Nc4ccc5c(c4)CC4CNCCN54)nc23)c1` (stereo not shown), for which the IC50 is 0.318 µM on BRD4-BD1 and 0.005 µM on JAK2.

With `CC(C)(C)S(=O)(=O)Nc1cc(-c2csc3cnc(Nc4ccc(N5CCNCC5)c(F)c4)nc23)ccc1F`, the IC50 on BRD4-BD1 amounted to 0.162 µM; on JAK2, 0.051 µM.

As to `CC(C)(C)S(=O)(=O)Nc1cccc(-n2ccc3cnc(Nc4cc(F)c5c(c4)CC4CNCCN54)nc32)c1` (stereo not shown), the IC50 at BRD4-BD1 stood at 0.3 µM; at JAK2 it was 0.006 µM.

For the compound `CN1CCN2c3c(F)cc(Nc4ncc5ccn(-c6cccc(NS(=O)(=O)C(C)(C)C)c6)c5n4)cc3CC2C1` (stereo not shown), the IC50 on BRD4-BD1 is 0.571 µM; on JAK2, 0.014 µM.

On to `CN(C)C1CCN(c2ccc(Nc3ncc4ccn(-c5cccc(NS(=O)(=O)C(C)(C)C)c5)c4n3)cc2)C1` (stereo not shown), for which the IC50 on BRD4-BD1 was 0.854 µM; at JAK2, 0.037 µM.

Consider `COc1cc(Nc2ncc3ccn(-c4cccc(NS(=O)(=O)C(C)(C)C)c4)c3n2)ccc1N1CCC(N(C)C)CC1`, for which the IC50 is 0.421 µM at BRD4-BD1 and 0.002 µM on JAK2.

As for `COc1cc(Nc2ncc3scc(-c4cccc(NS(=O)(=O)C(C)(C)C)c4)c3n2)ccc1N1CCC(N(C)C)CC1`, the values for the half-maximal inhibitory concentration (IC50) at BRD4-BD1 and on JAK2 were 0.56 µM and 0.001 µM, respectively.

Take `CNCC1CCN(c2ccc(Nc3ncc4c(n3)N(c3cccc(NS(=O)(=O)C(C)(C)C)c3)CC4)cc2F)CC1`: the IC50 at BRD4-BD1 was 0.58 µM; on JAK2, 0.009 µM.
